Results: patent US20080051327A1, “Crystals of an Aurora-A Tpx2 Complex, Tpx2 Binding Site of Aurora-A, Aurora-A Ligands and Their Use” (EMBL, priority 2003, published 2008)

T1: Aurora A (Homo sapiens, UniProt O14965)
T1 sequence (O14965 1-403): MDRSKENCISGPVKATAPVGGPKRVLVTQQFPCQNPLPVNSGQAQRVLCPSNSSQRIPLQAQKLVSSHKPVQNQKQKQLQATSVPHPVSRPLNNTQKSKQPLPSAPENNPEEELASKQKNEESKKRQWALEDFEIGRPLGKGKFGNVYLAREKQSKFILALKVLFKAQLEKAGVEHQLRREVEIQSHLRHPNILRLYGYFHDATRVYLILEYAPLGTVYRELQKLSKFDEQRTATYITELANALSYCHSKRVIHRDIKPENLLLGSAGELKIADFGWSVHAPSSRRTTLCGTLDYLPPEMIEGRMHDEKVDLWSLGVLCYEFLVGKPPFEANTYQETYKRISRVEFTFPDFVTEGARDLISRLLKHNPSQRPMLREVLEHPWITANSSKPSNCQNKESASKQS

T2: Aurora + TPX2 (Homo sapiens, UniProt O14965)
T2 sequence (O14965 1-403): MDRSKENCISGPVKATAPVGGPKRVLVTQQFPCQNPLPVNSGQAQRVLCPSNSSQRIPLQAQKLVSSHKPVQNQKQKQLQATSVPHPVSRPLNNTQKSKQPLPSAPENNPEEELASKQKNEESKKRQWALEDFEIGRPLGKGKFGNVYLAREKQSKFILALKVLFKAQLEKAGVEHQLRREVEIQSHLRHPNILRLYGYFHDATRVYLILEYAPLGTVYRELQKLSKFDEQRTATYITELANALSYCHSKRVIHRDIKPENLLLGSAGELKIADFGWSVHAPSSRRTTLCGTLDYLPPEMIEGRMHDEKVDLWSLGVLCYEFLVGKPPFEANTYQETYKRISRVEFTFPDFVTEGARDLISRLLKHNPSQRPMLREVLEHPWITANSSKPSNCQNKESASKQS


Experiments:
[1] = biological target: T1, Aurora A; test: luminescence ATP detection kinase assay (EasyLite-Kinase), Aurora without TPX2; format: biochemical; details: for IC50: 150 nM Aurora without TPX2, 20 μM ATP, 100 μM Kemptide, 20 min room temperature
Description: (§1) The ability of compounds (7) and (12) to inhibit Aurora A was tested in a luminescence ATP detection assay system for kinase applications. Briefly, the compound of the present invention was added to a solution of Aurora A in HEPES buffer (150 nM Aurora +/− TPX2, 25 mM HEPES pH 7.4, 5 mM MgCl2, 0.01% Tween 20; 0.1% BSA; 100 μM Kemptide [Promega Corporation, Madison, Wis.]); final assay concentrations). The addition of an ATP solution (20 μM final concentration) initiated the reaction. The reaction was carried out for 20 min at room temperature and terminated by the addition of equal volumes of EasyLite Solution (Perkin Elmer Corporation, Boston, Mass.) followed by monitoring the luminescence in a Wallac Envision plate reader (Perkin Elmer Corporation, Boston, Mass.). The EasyLite-Kinase® is an ATP monitoring system based on firely (Photinus pyralis) luciferase for the evaluation of kinase activity. The system relies on the consumption of ATP during a kinase reaction and is commercially available.

[2] = biological target: protein kinase A, PKA (Homo sapiens, UniProt P17612); test: luminescence ATP detection kinase assay, PKA counter-test; format: biochemical
[3] = biological target: T2, Aurora + TPX2; test: luminescence ATP detection kinase assay (EasyLite-Kinase), Aurora + TPX2; format: biochemical; details: 150 nM Aurora with TPX2, 20 μM ATP, 100 μM Kemptide, 20 min room temperature
Description: as §1

[4] = biological target: T1, Aurora A; test: immunoprecipitation from mitotic HeLa cell extract; format: binding; details: GST fusion proteins 1 μM, FIG. 1B
Description: HeLa cells (CCL2; ATCC, Manassas, Va.) were grown in 10% fetal calf serum (FCS) and 2 mM L-glutamine in modified Eagle's medium at 37° C. and 5% CO2. Cells were arrested in S phase using a double thymidine (2 mM) block as described (Stein, 1994) and released from S phase by washing away the thymidine. After 10 h, cells were trypsinized, incubated for 10 min in ice-cold lysis buffer (25 mM Tris pH 7.6, 200 mM NaCl, 1% Triton, protease inhibitors), and centrifuged for 10 min at 15,000 g.
For coating beads with anti-GST, 6 μg of antibody were incubated with 20 μl of protein A-conjugated Dynabeads 280 (Dynal) in a total volume of 100 μl PBS-T (PBS, 0.1% Triton X-100), for at least 1 h at 4° C. The beads were washed twice with PBS-T and twice with HeLa cells lysis buffer or CSF-XB (10 mM Hepes pH 7.7, 50 mM sucrose, 100 mM KCl, 2 mM MgCl2, 0.1 mM CaCl2 and 5 mM EGTA). 50 μl extract was incubated with GST, GST TPX2 1-43, GST TPX2 15-43, GST TPX2 Xenopus or GST TPX2(1-39) Xenopus proteins (final concentrations: 250 nM Xenopus; 1 μM HeLa) in the absence or presence of RanQ69L-GTP (16 μm) for 15 minutes at 20° C. and then added to the beads. […] The samples were then subjected to gel electrophoresis and analyzed by Western blotting with anti-GST, anti-Xenopus TPX2, anti-Xenopus Aurora-A or anti-human Aurora-A.

[5] = biological target: T1, Aurora A; test: phosphatase assay, PP1 treatment of Aurora-A, Western blot; format: biochemical; details: TPX2 protein 3 μM, Aurora-A 2 μM, PP1 0.5 h at 30° C., FIG. 1E
Description: Samples were diluted in phosphatase buffer (50 mM Tris-HCl pH 7, 0.1 mM EDTA, 1 mM MnCl2, 5 mM caffeine, 5 mM DTT, 0.025% Tween 20) and incubated in the absence or presence of PP1 (α isoform, NEB) for 0.5 h at 30° C. Afterwards proteins were separated by SDS-PAGE and analyzed by Western blotting with anti-Aurora-A or anti-phospho-Aurora-A (Cell Signalling, 1:10000 dilution).

[6] = biological target: T1, Aurora A; test: in vitro kinase assay, phosphorylation of histone H3 (autoradiography); format: biochemical; set-up: were incubated with full length Aurora-A or AuroraΔN in kinase buffer; made in house; host or cells: bacteria (printed only for the full-length protein used as immunogen); details: full length Aurora-A, TPX2 protein at 4 μM, FIG. 1C

| inhibition of Aurora (in words) [1] | IC50 [1] | IC50 [2] | IC50 [3] | interaction with Aurora-A in HeLa extract [4] | Molecule | protection of Aurora-A from dephosphorylation by PP1 [5] | stimulation of histone H3 phosphorylation by Aurora-A [6] |
| --- | --- | --- | --- | --- | --- | --- | --- |
| inhibited Aurora significantly | 79 µM | > 500 µM | > 500 µM | – | OCc1cn(CCCCc2ccccn2)c2ccc(Oc3ccc(O)cc3)cc12 [(7)] | – | – |
| inhibited Aurora significantly | 37 µM | > 500 µM | 37 µM | – | COC(=O)C(CC(=O)NCc1cn(CCCCc2ccccn2)c2ccc(Oc3ccc(O)cc3)cc12)NC(C)=O (stereo not drawn) [(12), 3-N-aspartylaminomethyl-5-O-p-hydroxyphenyl-1-N-(4-pyridylbutyl)-indole] | – | – |
| – | – | – | – | unable to do so | TPX2(15-43): shorter construct of human TPX2 encompassing residues 15-43 (DFINFSSLDDEGDTQNIDSWFEEKANLEN) | fully dephosphorylated as in the absence of TPX2 altogether | – |
| – | – | – | – | – | Full-length TPX2: full-length TPX2 protein, specific activator of Aurora-A (protein, UniProt Q9ULW0 1-747, looked up, full-length) MSQVKSSYSYDAPSDFINFSSLDDEGDTQNIDSWFEEKANLENKLLGKNGTGGLFQGKTPLRKANLQQAIVTPLKPVDNTYYKEAEKENLVEQSIPSNACSSLEVEAAISRKTPAQPQRRSLRLSAQKDLEQKEKHHVKMKAKRCATPVIIDEILPSKKMKVSNNKKKPEEEGSAHQDTAEKNASSPEKAKGRHTVPCMPPAKQKFLKSTEEQELEKSMKMQQEVVEMRKKNEEFKKLALAGIGQPVKKSVSQVTKSVDFHFRTDERIKQHPKNQEEYKEVNFTSELRKHPSSPARVTKGCTIVKPFNLSQGKKRTFDETVSTYVPLAQQVEDFHKRTPNRYHLRSKKDDINLLPSKSSVTKICRDPQTPVLQTKHRARAVTCKSTAELEAEELEKLQQYKFKARELDPRILEGGPILPKKPPVKPPTEPIGFDLEIEKRIQERESKKKTEDEHFEFHSRPCPTKILEDVVGVPEKKVLPITVPKSPAFALKNRIRMPTKEDEEEDEPVVIKAQPVPHYGVPFKPQIPEARTVEICPFSFDSRDKERQLQKEKKIKELQKGEVPKFKALPLPHFDTINLPEKKVKNVTQIEPFCLETDRRGALKAQTWKHQLEEELRQQKEAACFKARPNTVISQEPFVPKKEKKSVAEGLSGSLVQEPFQLATEKRAKERQELEKRMAEVEAQKAQQLEEARLQEEEQKKEELARLRRELVHKANPIRKYQGLEIKSSDQPLTVPVSPKFSTRFHC | prevents dephosphorylation of Thr288AUR | increases the activity of the kinase, but appears less effective than the fragment |
